2 compounds from ChEMBL document CHEMBL2074155, “Transport of antimony salts by Arabidopsis thaliana protoplasts over-expressing the human multidrug resistance-associated protein 1 (MRP1/ABCC1)” (FEBS Lett, 2006) can be followed below.

Data set [1] deals with T1, Multidrug resistance-associated protein 1 (Homo sapiens, UniProt P33527). The data set is described as follows: TP_TRANSPORTER: inhibition of Sb(III) accumulation in the presence of glibenclamid at a concentration of 10uM in MRP1-expressing MCP cells. Type of data set: functional, subcellular, Protoplasts. Particulars: arabidopsis thaliana.
T1 sequence (P33527 whole entry): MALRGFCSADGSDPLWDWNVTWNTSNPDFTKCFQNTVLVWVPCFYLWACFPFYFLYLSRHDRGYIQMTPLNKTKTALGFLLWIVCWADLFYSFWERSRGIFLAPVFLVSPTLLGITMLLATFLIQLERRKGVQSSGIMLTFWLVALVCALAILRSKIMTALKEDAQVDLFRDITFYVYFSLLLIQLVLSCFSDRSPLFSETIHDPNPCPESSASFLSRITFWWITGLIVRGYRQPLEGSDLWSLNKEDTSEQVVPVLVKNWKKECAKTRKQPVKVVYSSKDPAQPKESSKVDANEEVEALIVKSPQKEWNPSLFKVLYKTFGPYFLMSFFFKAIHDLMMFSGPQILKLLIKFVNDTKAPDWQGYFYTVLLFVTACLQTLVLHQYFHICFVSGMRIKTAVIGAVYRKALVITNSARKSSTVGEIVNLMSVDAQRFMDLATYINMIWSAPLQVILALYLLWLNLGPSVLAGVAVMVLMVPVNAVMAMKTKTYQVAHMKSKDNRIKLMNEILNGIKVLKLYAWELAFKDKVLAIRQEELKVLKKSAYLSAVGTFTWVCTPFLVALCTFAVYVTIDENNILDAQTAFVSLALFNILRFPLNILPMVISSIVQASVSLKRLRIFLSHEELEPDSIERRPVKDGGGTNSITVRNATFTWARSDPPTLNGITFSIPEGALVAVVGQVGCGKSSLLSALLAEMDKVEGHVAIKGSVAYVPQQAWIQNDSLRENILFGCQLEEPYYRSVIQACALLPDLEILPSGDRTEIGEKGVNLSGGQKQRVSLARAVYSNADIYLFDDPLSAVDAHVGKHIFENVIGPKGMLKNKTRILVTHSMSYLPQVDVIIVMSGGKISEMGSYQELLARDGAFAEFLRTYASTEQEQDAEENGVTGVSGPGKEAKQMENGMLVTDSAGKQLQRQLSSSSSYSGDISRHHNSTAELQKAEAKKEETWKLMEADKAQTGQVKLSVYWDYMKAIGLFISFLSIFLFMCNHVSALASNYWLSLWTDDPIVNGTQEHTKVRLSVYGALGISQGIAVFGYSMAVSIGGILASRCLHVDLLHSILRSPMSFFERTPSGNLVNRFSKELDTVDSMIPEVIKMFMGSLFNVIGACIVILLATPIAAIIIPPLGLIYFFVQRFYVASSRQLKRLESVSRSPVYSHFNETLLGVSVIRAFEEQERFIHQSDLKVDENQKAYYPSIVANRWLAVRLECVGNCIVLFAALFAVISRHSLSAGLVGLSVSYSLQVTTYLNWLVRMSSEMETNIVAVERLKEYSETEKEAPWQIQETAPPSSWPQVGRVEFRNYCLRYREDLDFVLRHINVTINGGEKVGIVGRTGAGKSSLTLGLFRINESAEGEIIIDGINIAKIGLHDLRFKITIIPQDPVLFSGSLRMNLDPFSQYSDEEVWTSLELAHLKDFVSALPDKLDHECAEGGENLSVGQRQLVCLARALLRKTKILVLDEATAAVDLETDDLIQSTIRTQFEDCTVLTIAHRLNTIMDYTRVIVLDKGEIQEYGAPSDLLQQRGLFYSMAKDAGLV
In data set [2] the target is T1, Multidrug resistance-associated protein 1. Kind of data set: TP_TRANSPORTER: cell accumulation in MRP1-expressing MCP cells. In kind it is functional, Mesophyll cell protoplasts. Particulars: arabidopsis thaliana.

As for `COc1ccc(Cl)cc1C(=O)NCCc1ccc(S(=O)(=O)NC(=O)NC2CCCCC2)cc1` [GLYBURIDE], the Activity result in data set [1] is “inhibitor [+]”.
On to ANTIMONY (III) ION, for which the Activity entry in data set [2] was “substrate [+]”.
